Values joined by “and” are separate entries in the source; they are usually repeats but may differ in a detail not shown here. Identical values can stand only once.
Tests used:
[1] = target: T1, MRGPRA1 (Mus musculus, UniProt Q91WW5); test: Ca2+ imaging and concentration-Ca2+ response (EC50) in HEK293 cells expressing MRGPRA1; type: cell-based; conditions: for Ca2+ response (concentration-response curve): MRGPRA1, triplicate wells (Fig 2D)
T1 construct: expressed in transfected cells
T1 sequence (Q91WW5 1-304): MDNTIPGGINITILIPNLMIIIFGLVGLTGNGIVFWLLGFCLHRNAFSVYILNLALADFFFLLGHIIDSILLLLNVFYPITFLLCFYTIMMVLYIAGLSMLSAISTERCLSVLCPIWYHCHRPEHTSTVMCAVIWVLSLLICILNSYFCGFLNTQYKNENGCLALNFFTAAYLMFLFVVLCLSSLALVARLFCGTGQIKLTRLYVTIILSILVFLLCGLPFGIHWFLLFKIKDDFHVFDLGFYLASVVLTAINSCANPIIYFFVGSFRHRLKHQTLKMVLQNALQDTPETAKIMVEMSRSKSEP
Experimental: All cultured cells were maintained in DMEM supplemented with 10% FBS and 1% Penicillin/Streptomycin at 37°C, 5% CO2. All data included were generated from cells tested for mycoplasma and found to be negative. Cells were imaged in calcium imaging buffer (CIB; 10 mM HEPES, 1.2 mM NaHCO3, 130 mM NaCl, 3 mM KCl, 2.5 mM CaCl2, 0.6 mM MgCl2, 20 mM glucose, and 20 mM sucrose at pH 7.4 and 290–300 mOsm). To monitor changes in intracellular [Ca^2+] ([Ca^2+]i), cells were loaded with either Fura 2-AM (HEK293 cells) or Fluo 4-AM (DRG neurons and mast cells) for 30 min in the dark at 37°C in CIB just prior to imaging. With Fura 2-AM, emission at 510 nm was monitored from excitation at both 340 nm and 380 nm. With Fluo 4-AM, emission at 520 nm was monitored from excitation at 488 nm. Cells were identified as responding if the intracellular [Ca^2+] rose by either 50% compared to baseline or 50% compared to the [Ca^2+]i change assayed during addition of 50 mM KCl (neurons only). Damaged, detached, high-baseline, and motion-activated cells were excluded from analysis.
In initial screens, HEK293 cells stably expressing the murine G-protein alpha-subunit Gα15, a unique Gα protein that non-selectively couples a large variety of GPCRs to phospholipase C ^30, were plated on poly-D-lysine-coated coverslips and transiently transfected with constructs encoding the MRGRPR of interest. 12–24 hr later, cells were loaded with the Fura 2-AM. Unless otherwise specified, compounds were perfused into the imaging chamber for approximately thirty seconds after a baseline period was established. Response was then monitored at 5 s intervals for an additional 60 s.
HEK293 cells stably expressing either MRGPRA1, MRGPRX4, and MRGRPC11 were seeded in poly-D-lysine-coated 96-well plates at 10,000 cells/well. Cells were loaded with Fura 2–AM, washed twice, and maintained in CIB. Haem metabolites were freshly dissolved in DMSO in dim light and then diluted into a buffer comprised of 20 mM Tris and 150 mM NaCl at pH 8.8. Potential changes in pH were evaluated prior to each experiment. EC50 values were determined from dose-responses performed in triplicate, repeated 2–4 times. To determine potential antagonism by QWF against bilirubin, cells were treated with varying doses of QWF for 1 min in CIB prior to application of agonist.
HEK293 stable cell lines expressing GFP-tagged MRGPRA3, MRGPRC11, MRGPRD, MRGPRX1, and MRGPRX2 were generated in previously described reports ([Liu et al., 2009]; [Liu et al., 2012]; [McNeil et al., 2015]). Briefly, plasmids containing the receptor of interest were transfected into HEK cells using Lipofectamine 3000. After 3 days, cells were then selected using 0.5 mg/mL G418. After 3 weeks, monoclonal colonies were established and each the highest expressing clones were identified. For this study, Mrgpra1 and MRGPRX4 were inserted into pEGFP-N1 and transfected into HEK293 cells. MRGPR-positive cells were selected using 0.5 mg/mL G418 for three weeks, after which GFP-positive cells were sorted by FACS and monoclonally expanded. Two lines expressing similar levels of MRGPRA1 and MRGPRX4, as measured by GFP fluorescence, were selected for study.

[2] = target: T1, MRGPRA1; test: Microscale thermophoresis binding to MRGPRA1; design: Transformed binding isotherm (mean of three experiments): unit not given here; conditions: for Transformed binding isotherm (mean of three experiments): MRGPRA1 (Fig 2E)
Experimental: (§1) Binding isotherms for MRGPRA1, MRGPRX4, and MRGRPC11 towards various ligands were determined by microscale thermophoresis with the NanoTemper monolith NT.115 instrument ([Duhr and Braun, 2006]). Ligands were pre-incubated with 10 µM of the GFP-tagged receptor of interest for 5 min at room temperature in binding buffer (20 mM Tris and 150 mM NaCl at pH 8.8). Receptors were crudely purified as a membrane fraction from cells stably expressing the receptor ([Vasavda et al., 2017]). Haem metabolites were freshly dissolved in 0.1 M NaOH in dim light and then diluted into assay buffer. Lyophilized BAM8-22 was dissolved in binding buffer. The pH of each ligand was evaluated prior to incubation with a receptor. Samples were loaded into NT.115 Hydrophobic-Treated Capillaries from NanoTemper. Microscale thermophoretic experiments were executed using 20% LED power and 15% MST power. KDs were calculated using the law of mass action with data from three independent experiments. Binding between bilirubin and receptors was evaluated purely thermophoretically, whereas binding between BAM8-22 and MRGPRC11 was evaluated by T-Jump. Samples with dramatic deviations in initial fluorescence were excluded.

[3] = target: T2, MRGPRX4 (Homo sapiens, UniProt Q96LA9); test: Microscale thermophoresis binding to MRGPRX4; design: microscale thermophoresis response (binding isotherm), mean: unit not given here; conditions: for microscale thermophoresis response (binding isotherm), mean: mean of n=3, Fig 2-J
T2 construct: expressed in transfected cells
Experimental: as §1

T2 sequence (Q96LA9 whole entry): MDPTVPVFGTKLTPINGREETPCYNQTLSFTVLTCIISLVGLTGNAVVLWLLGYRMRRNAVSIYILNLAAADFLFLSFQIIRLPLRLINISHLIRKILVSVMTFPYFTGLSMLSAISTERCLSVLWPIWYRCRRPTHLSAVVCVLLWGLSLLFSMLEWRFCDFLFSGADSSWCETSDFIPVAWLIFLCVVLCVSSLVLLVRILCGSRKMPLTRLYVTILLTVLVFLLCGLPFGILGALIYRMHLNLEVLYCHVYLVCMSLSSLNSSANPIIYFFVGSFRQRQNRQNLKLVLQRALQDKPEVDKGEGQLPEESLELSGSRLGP

SMILES: C=CC1=C(C)/C(=C/c2[nH]c(Cc3[nH]c(/C=C4\NC(=O)C(C)=C4C=C)c(C)c3CCC(=O)NCCS(=O)(=O)O)c(CCC(=O)NCCS(=O)(=O)O)c2C)NC1=O [conjugated bilirubin, bilirubin ditaurate]
- Calcium response / activation of MRGPRA1-expressing cells ([1]; 50 µM bilirubin, 30 µM FMRF): activated MRGPRA1-expressing cells
- Ca2+ response (concentration-response curve) ([1]; [Ligand] 7.8125e-6 M): 1.221 and 1.276 and 1.273
- Ca2+ response (concentration-response curve) ([1]; [Ligand] 1.5625e-5 M): 1.253 and 1.283 and 1.252
- Ca2+ response (concentration-response curve) ([1]; [Ligand] 3.125e-5 M): 1.222 and 1.225 and 1.221
- Ca2+ response (concentration-response curve) ([1]; [Ligand] 6.25e-5 M): 1.19 and 1.186 and 1.177
- Ca2+ response (concentration-response curve) ([1]; [Ligand] 0.000125 M): 1.212 and 1.254 and 1.214
- Ca2+ response (concentration-response curve) ([1]; [Ligand] 0.00025 M): 1.3325 and 1.3437 and 1.301
- Ca2+ response (concentration-response curve) ([1]; [Ligand] 0.0005 M): 1.4484 and 1.4326 and 1.424
- Ca2+ response (concentration-response curve) ([1]; [Ligand] 0.001 M): 1.572 and 1.554 and 1.499
- Transformed binding isotherm (mean of three experiments) ([2]; [Ligand] 1.221e-7 M): 8.864
- Transformed binding isotherm (mean of three experiments) ([2]; [Ligand] 2.441e-7 M): 12.0246
- Transformed binding isotherm (mean of three experiments) ([2]; [Ligand] 4.883e-7 M): -13.1442
- Transformed binding isotherm (mean of three experiments) ([2]; [Ligand] 9.766e-7 M): 10.2399
- Transformed binding isotherm (mean of three experiments) ([2]; [Ligand] 1.9531e-6 M): -8.006
- Transformed binding isotherm (mean of three experiments) ([2]; [Ligand] 3.9063e-6 M): -10.5584
- Transformed binding isotherm (mean of three experiments) ([2]; [Ligand] 7.8125e-6 M): -9.562
- Transformed binding isotherm (mean of three experiments) ([2]; [Ligand] 1.5625e-5 M): -5.789
- Transformed binding isotherm (mean of three experiments) ([2]; [Ligand] 3.125e-5 M): -4.24
- Transformed binding isotherm (mean of three experiments) ([2]; [Ligand] 6.25e-5 M): 37.7812
- Transformed binding isotherm (mean of three experiments) ([2]; [Ligand] 0.000125 M): 5.5559
- Transformed binding isotherm (mean of three experiments) ([2]; [Ligand] 0.00025 M): 6.134
- Transformed binding isotherm (mean of three experiments) ([2]; [Ligand] 0.0005 M): 25.273
- Transformed binding isotherm (mean of three experiments) ([2]; [Ligand] 0.001 M): 43.2348
- Binding to MRGPRA1 ([2]; microscale thermophoresis): lower affinity than unconjugated bilirubin
- microscale thermophoresis response (binding isotherm), mean ([3]; [Ligand] 3.05e-8 M): 14.6332
- microscale thermophoresis response (binding isotherm), mean ([3]; [Ligand] 6.1e-8 M): -0.3949
- microscale thermophoresis response (binding isotherm), mean ([3]; [Ligand] 1.221e-7 M): -3.186
- microscale thermophoresis response (binding isotherm), mean ([3]; [Ligand] 2.441e-7 M): 10.7277
- microscale thermophoresis response (binding isotherm), mean ([3]; [Ligand] 4.883e-7 M): 1.18
- microscale thermophoresis response (binding isotherm), mean ([3]; [Ligand] 9.766e-7 M): 3.799
- microscale thermophoresis response (binding isotherm), mean ([3]; [Ligand] 1.9531e-6 M): 8.125
- microscale thermophoresis response (binding isotherm), mean ([3]; [Ligand] 3.9063e-6 M): 1.993
- microscale thermophoresis response (binding isotherm), mean ([3]; [Ligand] 7.8125e-6 M): 2.933
- microscale thermophoresis response (binding isotherm), mean ([3]; [Ligand] 1.5625e-5 M): -0.662
- microscale thermophoresis response (binding isotherm), mean ([3]; [Ligand] 3.125e-5 M): 8.64
- microscale thermophoresis response (binding isotherm), mean ([3]; [Ligand] 6.25e-5 M): 18.6992
- microscale thermophoresis response (binding isotherm), mean ([3]; [Ligand] 0.000125 M): 39.4499
- microscale thermophoresis response (binding isotherm), mean ([3]; [Ligand] 0.00025 M): 46.5687
- microscale thermophoresis response (binding isotherm), mean ([3]; [Ligand] 0.0005 M): 49.0399
- microscale thermophoresis response (binding isotherm), mean ([3]; [Ligand] 0.001 M): 52.0554
- Binding to MRGPRX4 ([3]; microscale thermophoresis): lower affinity than unconjugated bilirubin

From PMC6368403, “Identification of a bilirubin receptor that may mediate a component of cholestatic itch” (eLife, 2019)
